# What was measured:
# DPP-IV = molecular target: T1, DPP-IV (Homo sapiens, UniProt P27487); assay: DPP-IV assay with Caco-2 cell extract as DPP-IV source; type: biochemical; conditions: extract of human colon carcinoma cell line Caco-2, AFC substrate 100 μM, 60 minutes, room temperature; read-out: DPP IV inhibition IC50
# T1 construct: The cell extract was obtained from the cells solubilized in a buffer; endogenous in cells; host or cells: Caco-2 (human colon carcinoma), differentiated to induce DPP-IV expression; Nonidet-P40 solubilized extract
# Protocol: The ability of the substances and their corresponding salts to inhibit DPP-IV activity can be shown in a test set-up in which an extract of the human colon carcinoma cell line Caco-2 is utilized as the DPP-IV source. […] The cell extract was obtained from the cells solubilized in a buffer (10 mM tris HCl, 0.15 M NaCl, 0.04 t.i.u. aprotinin, 0.5% Nonidet-P40, pH 8.0) by centrifugation at 35000 g for 30 minutes at 4° C. (for the removal of cell debris).
# The DPP-IV assay was carried out as follows:
# 50 μl of substrate solution (AFC; AFC is amido-4-trifluoromethylcoumarin), final concentration 100 μM, were introduced into black microtitre plates. 20 μl of assay buffer (final concentrations 50 mM tris HCl pH 7.8, 50 mM NaCl, 1% DMSO) were pipetted in. The reaction was started by addition of 30 μl of solubilized Caco-2 protein (final concentration 0.14 μg of protein per well). […] The reaction was carried out at room temperature; the incubation period was 60 minutes. […] Blank values (corresponding to 0% activity) were obtained in batches without Caco-2 protein (volumes replaced by assay buffer), control values (corresponding to 100% activity) were obtained in batches without addition of substance. […]
# rats = assay: Tolerability after oral administration to rats (behaviour); type: in vivo; conditions: oral administration of 10 mg/kg
# T1 sequence (P27487 whole entry): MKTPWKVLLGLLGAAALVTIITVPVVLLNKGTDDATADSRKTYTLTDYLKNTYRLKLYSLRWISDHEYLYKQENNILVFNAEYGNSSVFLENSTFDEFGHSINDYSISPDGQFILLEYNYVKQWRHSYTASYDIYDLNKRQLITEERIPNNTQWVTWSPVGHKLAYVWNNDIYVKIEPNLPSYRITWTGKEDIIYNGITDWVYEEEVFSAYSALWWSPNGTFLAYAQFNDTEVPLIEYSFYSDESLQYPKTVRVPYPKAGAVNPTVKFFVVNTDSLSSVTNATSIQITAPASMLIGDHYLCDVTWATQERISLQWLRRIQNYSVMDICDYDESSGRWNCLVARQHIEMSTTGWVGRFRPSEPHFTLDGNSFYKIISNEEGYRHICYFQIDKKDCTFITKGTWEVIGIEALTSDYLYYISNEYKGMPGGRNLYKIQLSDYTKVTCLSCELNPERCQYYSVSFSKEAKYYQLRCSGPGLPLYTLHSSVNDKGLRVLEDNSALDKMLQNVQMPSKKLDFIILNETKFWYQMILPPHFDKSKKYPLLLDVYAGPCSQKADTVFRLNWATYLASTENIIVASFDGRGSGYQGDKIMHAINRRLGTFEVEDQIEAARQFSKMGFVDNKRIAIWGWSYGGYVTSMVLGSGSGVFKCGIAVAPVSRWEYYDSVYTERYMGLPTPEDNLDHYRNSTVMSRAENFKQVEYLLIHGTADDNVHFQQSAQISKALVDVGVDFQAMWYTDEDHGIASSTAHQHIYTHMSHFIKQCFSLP
SMILES,IC50 (DPP-IV),melting point,changes in the behaviour of the animals (rats)
"CC#CCn1c(N2CCNCC2)nc2c1c(=O)n(Cc1nc(C)cc3ccccc13)c(=O)n2C [1(1), 1-[(3-Methylisoquinolin-1-yl)methyl]-3-methyl-7-(2-butyn-1-yl)-8-(piperazin-1-yl)-xanthine]",17 nM,–,–
"CC#CCn1c(N2CCCNCC2)nc2c1c(=O)n(Cc1nc(C)cc3ccccc13)c(=O)n2C [1(2), 1-[(3-Methylisoquinolin-1-yl)methyl]-3-methyl-7-(2-butyn-1-yl)-8-([1,4]diazepan-1-yl)xanthine]",9 nM,–,–
"CC#CCn1c(N2CCCNCC2)nc2c1c(=O)n(Cc1nc(C)c3ccccc3n1)c(=O)n2C [1(3), 1-[(4-Methylquinazolin-2-yl)methyl]-3-methyl-7-(2-butyn-1-yl)-8-([1,4]diazepan-1-yl)xanthine]",6 nM,188 to 190 °C,–
"CC#CCn1c(N2CCCNCC2)nc2c1c(=O)n(Cc1nc3ccccc3c3ccccc13)c(=O)n2C [Example 1(5), 1-[(Phenanthridin-6-yl)methyl]-3-methyl-7-(2-butyn-1-yl)-8-([1,4]diazepan-1-yl)-xanthine]",–,223 to 225 °C,–
"CC#CCn1c(N2CCNCC2)nc2c1c(=O)n(Cc1nc(C)c3ccccc3n1)c(=O)n2C [Example 1, 1-[(4-Methylquinazolin-2-yl)methyl]-3-methyl-7-(2-butyn-1-yl)-8-(piperazin-1-yl)-xanthine]",–,–,not possible to observe any changes in the behaviour of the animals
